Measurements published in patent US20210196674A1, “Therapeutics for Malaria” (priority 2015, published 2021).
Read-outs that look alike come from different tables or passages of the source.

Key:
[1] = after consumption of 200 mg of naringenin, present in grapefruit juice; cited from earlier work
[2] = in vivo, cited from earlier work; for half-life in the blood: po
[3] = test system: malaria (P. falciparum) infection; assay: Clinical trials in Haiti: 16-day low-dose Artemisinin with or without Citrus bioflavonoid; assay type: in vivo, human; conditions: single 16-day treatment; daily Artemisinin: babies 25 mg, children 2-12 years 50 mg, adults 100 mg; n=17
Protocol: In one example, patients in Haiti with non-complicated and complicated malaria (P. falciparum) infection were recruited to test the efficacy of peroxybioflavonoid treatment. The treated patient population included infants (n=7), children under age 18 (n>100), and adults (n>75).
Each day, babies were given 25 mg, children 2-12 years old received 50 mg and adults 100 mg of Artemisinin (low-dose Artemisinin). In some patients, Artemisinin was given alone. In other patients, the Artemisinin was combined with Citrus bioflavonoid (peroxybioflavonoid). Patients were treated for 16 days.

Staphylococcus aureus = conditions: cited from earlier work; for growth inhibitory action: alone; for effect with berberine against Staphylococcus aureus: combination with berberine, attributed to inhibition of MDR pump
[4] = lambs; cited from earlier work
Plasmodium berghei = conditions: curcumin orally 100 mg/kg in combination with Artemisinin at 0.75 and 1.5 mg/mouse; cited from earlier work
Plasmodium falciparum = conditions: cited from earlier work; for antimalarial effect: alone, catechins from a crude green tea extract; for effect on Artemisinin activity in vitro: combination with Artemisinin

In the case of `O=C1C[C@@H](c2ccc(O)cc2)Oc2cc(O)cc(O)c21` [naringenin], the plasma concentrations [1] is listed as ≤ 6.0 µM.
For `C[C@@H]1CC[C@H]2[C@@H](C)C(=O)O[C@@H]3O[C@@]4(C)CC[C@@H]1[C@]32OO4` [Artemisinin], the half-life [2] is given as “very short” and the “remained free of malaria post-treatment” value [3] is given as “up to nine”.
In the case of `C[C@H]1[C@H](OC(=O)CCC(=O)O)O[C@@H]2O[C@@]3(C)CC[C@H]4[C@H](C)CC[C@@H]1[C@@]24OO3` [artesunate], the half-life ([2]; im) is listed as 7 to 9 h and the “half-life in the blood” value [2] is listed as 1 to 2 h.
For `CCO[C@H]1O[C@@H]2O[C@@]3(C)CC[C@H]4[C@H](C)CC[C@@H]([C@H]1C)[C@@]24OO3` [arteether], the half-life ([2]; im) is listed as 7 to 9 h and the “half-life in the blood” value [2] is listed as 1 to 2 h.
For `COc1cc(-c2oc3cc(OC)c(OC)c(O)c3c(=O)c2OC)ccc1O` [chrysoplenetin], the growth inhibitory action (Staphylococcus aureus) is listed as “very weak” and the “effect with berberine against Staphylococcus aureus” value (Staphylococcus aureus) is listed as “synergistic effect”.
In the case of `COc1cc2oc(-c3ccc(O)c(O)c3)c(OC)c(=O)c2c(O)c1OC` [chrysosplenol-D], the growth inhibitory action (Staphylococcus aureus) is given as “very weak” and the “effect with berberine against Staphylococcus aureus” value (Staphylococcus aureus) is given as “synergistic effect”.
In the case of `O=c1c(O)c(-c2ccc(O)c(O)c2)oc2cc(O)cc(O)c12` [quercetin], the bioavailability of moxidectin [4] is given as “increase the bioavailability”.
For `COc1cc(/C=C/C(=O)CC(=O)/C=C/c2ccc(O)c(OC)c2)ccc1O` [curcumin], the “survival rate of infected mice” value (Plasmodium berghei) is listed as “increased survival rate”.
In the case of catechin gallate, the antimalarial effect (Plasmodium falciparum) is given as “antimalarial effects of their own” and the “effect on Artemisinin activity in vitro” value (Plasmodium falciparum) is given as “potentiate the effects of Artemisinin”.
For `O=C(O[C@@H]1Cc2c(O)cc(O)cc2O[C@@H]1c1cc(O)c(O)c(O)c1)c1cc(O)c(O)c(O)c1` [epigallocatechin gallate], the antimalarial effect (Plasmodium falciparum) is given as “antimalarial effects of their own” and the “effect on Artemisinin activity in vitro” value (Plasmodium falciparum) is given as “potentiate the effects of Artemisinin”.
